Bounds are passed on as bounds.

One may read the MIC as the least concentration at which growth counts as inhibited. What is called IC50 is the concentration that inhibits the measured activity by half. A word on the ΔTm: it is the shift of the melting midpoint relative to a reference.

Assay [1] deals with Klebsiella pneumoniae ATCC 49619. Nature of the assay: MIC determination. The note with it: K. pneumoniae; 18 h. The format is cell-based. The method, then: (§1) Wild-type Escherichia coli K-12 AG100 strain [argE3 thi-1 rpsL xyl mtl Δ(gal-uvrB) supE44] expressing the AcrAB TolC efflux pump at its basal level and Klebsiella pneumoniae ATCC 49619 Gram-negative strains were studied in the experiments. Sensitive (ATCC 25928) and the methicillin-resistant (MRSA 272123) subspecies of Staphylococcus aureus were used as Gram-positive strains in the assays.
(§2) Minimum inhibitory concentration (MIC) values of selected compounds were determined in 96-well plates based on the Clinical and Laboratory Standard Institute guidelines (CLSI guidelines). The stock solutions of the compounds were dissolved in DMSO using 1.3 μL of Mueller Hinton Broth, and then two-fold serial dilutions were performed. The starting concentration of the compounds was 100 μM. Then 10^‒4 dilution of an overnight bacterial culture in 100 μL of medium was added to each well, except for the medium control wells.

In assay [2] the test system is Escherichia coli K-12 AG100. Nature of the assay: MIC determination. It counts as cell-based. To be noted: E. coli; 18 h. The method, then: as §1, §2
The subject of assay [3] is S. aureus ATCC 25928. Nature of the assay: MIC determination. To be noted: S. aureus ATCC 25928 (sensitive); 18 h. The format is cell-based, Staphylococcus aureus. As to the method:
as §1, §2

Assay [4] has as its system A-549 cells. Description: Sulforhodamine B (SRB) cell viability assay. The format is cell-based. The note with it: 72 h.
For assay [5], the system named is A-375 cells. Description: Sulforhodamine B (SRB) cell viability assay. The format is cell-based. To be noted: 72 h.
Assay [6] deals with bovine serum albumin (BSA) (Bos taurus, UniProt P02769). Nature of the assay: BSA fluorescence quenching. The format is binding. Also on record: Affinity constant K ± SD: unit not given here. To be noted: for Affinity constant K ± SD: fluorescence quenching, HypSpec2014, 1:1 species assumed. The method, then:
To evaluate the interaction of the compounds, both organic and Cu(II) complexes, with bovine serum albumin (BSA) fluorescence spectra were measured. In a typical fluorescence experiment, to a solution of 1.5 μM of BSA in the same buffer, successive aliquots of a stock solution of each compound in DMSO were added directly to the cuvette (optical path 1.0 cm). The fluorescence emission was recorded between 310 and 600 nm with excitation at 295 nm. The final DMSO % was kept below 2% (v/v). The Stern-Volmer plots were built using the emission at 340 nm and blank samples (in the absence of BSA) with the same concentration of the complexes were recorded and subsequently subtracted from the corresponding emission spectra containing the fluorophore. Moreover, the fluorescence emission intensity was corrected for reabsorption and inner filter effects using UV-Vis absorption data recorded for each sample, since all complexes absorb in the measured wavelength range (19, 20).
The interaction of the organic compounds and Cu(II) complexes with BSA was monitored by studying the quenching of albumin’s fluorescence emission with increasing concentrations of the complexes (25). Overall, the intensity of the Trp emission decreases with the addition of the complexes, except for 8 (see Figs. S19). The Stern-Volmer relationship was used to analyse the fluorescence quenching process:
where I0 and I are the fluorescence intensities in the absence and in the presence of quencher, kq is the bimolecular quenching rate, τ0 is the fluorophore lifetime in the absence of the quencher (6.22 ns) (26) and [Q] is the quencher concentration. […] This linear relationship is obeyed for all complexes except 5, where a downward curvature is observed. This can be an indication of two distinct binding sites, corresponding to two populations of fluorophores, one being accessible and other inaccessible or buried inside the protein. In such cases, the Stern-Volmer relation can be modified to (27):
where ΔI = I0 – I, Ka is the Stern-Volmer constant for the accessible fraction and fa is the fraction of accessible fluorophore. […] As first approximation, the total concentration of quencher was used to check the quenching mechanism. […] As all systems presented high absorbance values in the measured range of wavelengths, no excess of quencher was used and, therefore, 1:1 species will be assumed for these interactions.

In assay [7] the test system is calf thymus DNA (ctDNA). Nature of the assay: ctDNA thermal denaturation. The format is binding. To be noted: for ΔTm: equimolar amounts of compound and DNA, HEPES 0.01 M, pH 7.4; for melting temperature Tm of ctDNA with compound: equimolar mixtures (25 µM), 10 mM HEPES pH 7.4, 1.5% DMSO. An excerpt: Nucleic acids are potential targets for metallodrugs and, consequently, evaluation of the interactions of the compounds with DNA and corresponding binding strength is relevant under the scope of this work. Thermal denaturation is a useful technique to measure the stability of the secondary structure of DNA (29). Under the chosen experimental conditions (HEPES, 0.01 M, pH 7.4), it is possible to follow the denaturation of calf thymus DNA (ctDNA) double strand.

Sequence of bovine serum albumin (BSA) (P02769 25-607): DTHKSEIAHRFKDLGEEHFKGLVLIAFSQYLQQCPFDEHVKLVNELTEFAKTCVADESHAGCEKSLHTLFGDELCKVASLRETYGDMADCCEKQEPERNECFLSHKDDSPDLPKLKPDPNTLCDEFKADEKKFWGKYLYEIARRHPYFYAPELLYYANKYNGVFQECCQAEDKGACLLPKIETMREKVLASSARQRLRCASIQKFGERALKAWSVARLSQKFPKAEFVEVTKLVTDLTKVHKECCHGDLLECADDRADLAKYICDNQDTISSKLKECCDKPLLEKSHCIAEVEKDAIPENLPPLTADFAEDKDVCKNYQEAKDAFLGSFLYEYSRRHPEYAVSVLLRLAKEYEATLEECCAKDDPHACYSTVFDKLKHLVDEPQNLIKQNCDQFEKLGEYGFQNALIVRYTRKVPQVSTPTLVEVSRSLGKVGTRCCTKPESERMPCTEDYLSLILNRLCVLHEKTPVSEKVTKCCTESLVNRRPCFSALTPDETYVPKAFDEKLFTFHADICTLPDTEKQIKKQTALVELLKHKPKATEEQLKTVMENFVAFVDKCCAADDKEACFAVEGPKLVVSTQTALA

In the case of `CC(=O)[O-].O=C(NN=Cc1ccc2cccc([O-])c2n1)c1ccccc1.[Cu+2]` [Complex 1, [Cu(HL^1)(AcO)]], the MIC in assay [1] is over 100 µM; in assay [2], over 100 µM; in assay [3], 50 µM. Further, the IC50 in assay [4] is 4.2 ± 0.2 µM; in assay [5] it was 2.7 ± 0.03 µM. Besides, in assay [6], the “Affinity constant K ± SD” value is “(8.4 ± 6.6) × 10^7”. Moreover, in assay [7], the ΔTm was over 25.0 °C.
On to `[Cu+2].[O-]C(=NN=Cc1ccc2cccc([O-])c2n1)c1ccc(F)cc1` [Complex 3, [Cu(L^3)]3], for which the results for the MIC in assay [1], in assay [2] and in assay [3] were over 100 µM, over 100 µM and 100 µM, respectively. Also, the IC50 in assay [4] came out at 8.9 ± 0.2 µM; in assay [5], 5.1 ± 0.3 µM. Moreover, the “Affinity constant K ± SD” value in assay [6] is listed as “(3.4 ± 0.7) × 10^5”. Besides, in assay [7], the shift in melting temperature (ΔTm) turned out to be 13.0 °C. Moreover, the “melting temperature Tm of ctDNA with compound” value in assay [7] amounted to 73.2 ± 1.7 °C.
Take `COc1ccc(C([O-])=NN=Cc2ccc3cccc([O-])c3n2)cc1.[Cu+2]` [Complex 5, [Cu(L^5)]3]: the MIC in assay [1] is over 100 µM; in assay [2], over 100 µM; in assay [3], 100 µM. Besides, the values for the IC50 in assay [4] and in assay [5] were 5.1 ± 0.01 µM and 3.4 ± 0.1 µM, respectively. The “Affinity constant K ± SD” value in assay [6] was “(1.05 ± 0.04) × 10^5”. For the same molecule, in assay [6] (modified Stern-Volmer), the “Stern-Volmer constant for the accessible fraction Ka” value was found to be 2.1e+06 M⁻¹. Moreover, the “fraction of accessible fluorophore fa” value in assay [6] (modified Stern-Volmer) came out at 0.24. In assay [7], the ΔTm turned out to be 17.7 °C. Moreover, the “melting temperature Tm of ctDNA with compound” value in assay [7] was determined as 77.9 ± 1.3 °C.

The record behind these values is PMC10072326, “Promising anticancer agents based on 8-hydroxyquinoline hydrazone copper(II) complexes” (Frontiers in Chemistry, 2023).
